PubChem BioAssay (NCI)
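These data come from cells grown in 96-well plates and exposed to compound for 48 hours at five concentrations. The concentration for 50% growth inhibition is given as GI50. Definition used: TGI = concentration required for complete inhibition of growth.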

Tests used:
Experiment in all cases: inhibition of tumour cell growth, NCI panel, 48 h
ACHN renal = tested on: ACHN renal
K-562 leukemia = tested on: K-562 leukemia
MOLT-4 leukemia = tested on: MOLT-4 leukemia
OVCAR-5 ovarian = tested on: OVCAR-5 ovarian
HCT-15 colon = tested on: HCT-15 colon
NCI-H226 lung = tested on: NCI-H226 lung
MALME-3M melanoma = tested on: MALME-3M melanoma
UACC-62 melanoma = tested on: UACC-62 melanoma
OVCAR-4 ovarian = tested on: OVCAR-4 ovarian
PC-3 prostate = tested on: PC-3 prostate

In the case of `O=c1[nH]c(=S)[nH]c(O)c1/C=C1\C=CC=N1`, the TGI (ACHN renal) is reported as 29.6 µM, the TGI (K-562 leukemia) is reported as over 100 µM and the TGI (MOLT-4 leukemia) is reported as 44.3 µM. The TGI (OVCAR-5 ovarian) was 47 µM, the TGI (HCT-15 colon) was 14.8 µM and the TGI (NCI-H226 lung) was 33.4 µM. The TGI (MALME-3M melanoma) was 34.4 µM, the TGI (UACC-62 melanoma) was 35.6 µM and the TGI (OVCAR-4 ovarian) was 32 µM.

`CN(O)C(=O)Cc1ccccc1` gave a TGI (ACHN renal) of over 100 µM, a TGI (K-562 leukemia) of over 100 µM and a TGI (MOLT-4 leukemia) of over 100 µM. For the same compound, the TGI (OVCAR-5 ovarian) was over 100 µM, the TGI (NCI-H226 lung) was over 100 µM and the TGI (MALME-3M melanoma) was over 100 µM. For the same compound, the TGI (UACC-62 melanoma) was over 100 µM and the TGI (OVCAR-4 ovarian) was over 100 µM.

`Cc1ccc(N2C(=O)/C(=C3\Sc4c(nc(C)[nH]c4=O)N3c3ccccc3)SC2=S)cc1` was tested, and the TGI (ACHN renal) was over 100 µM, the TGI (K-562 leukemia) was 95.8 µM and the TGI (OVCAR-5 ovarian) was over 100 µM. The TGI (HCT-15 colon) was over 100 µM, the TGI (NCI-H226 lung) was 86.6 µM and the TGI (MALME-3M melanoma) was over 100 µM. The TGI (UACC-62 melanoma) was over 100 µM and the TGI (OVCAR-4 ovarian) was over 100 µM.

`O=[N+]([O-])c1ccccc1C1N2CCCCC2[C@@H]2c3[nH]c4ccccc4c3CCN12` (stereo partly drawn) was tested, and the TGI (ACHN renal) was 31.3 µM, the TGI (K-562 leukemia) was 14 µM and the TGI (MOLT-4 leukemia) was 28.1 µM. For the same compound, the TGI (OVCAR-5 ovarian) was 40 µM, the TGI (HCT-15 colon) was 29.4 µM and the TGI (UACC-62 melanoma) was 14.4 µM. It also gave a TGI (OVCAR-4 ovarian) of 32.3 µM.

`CCC1(OC(C)=O)C(=O)OCc2c1cc1n(c2=O)Cc2cc3ccccc3nc2-1` (stereo not drawn) was tested, and the TGI (ACHN renal) was 12.1 µM, the TGI (K-562 leukemia) was over 100 µM and the TGI (OVCAR-5 ovarian) was 28.9 µM. For the same compound, the TGI (HCT-15 colon) was over 100 µM, the TGI (NCI-H226 lung) was 4.55 µM and the TGI (MALME-3M melanoma) was over 100 µM. The TGI (OVCAR-4 ovarian) was over 100 µM.

`O=C1C(c2ccccc2)=C(c2ccccc2)C(c2ccc(CCCCCCc3ccc(C4=C(c5ccccc5)C(=O)C(c5ccccc5)=C4c4ccccc4)cc3)cc2)=C1c1ccccc1` showed a TGI (ACHN renal) of over 100 µM, a TGI (K-562 leukemia) of over 100 µM and a TGI (MOLT-4 leukemia) of over 100 µM. For the same compound, the TGI (OVCAR-5 ovarian) was over 100 µM, the TGI (HCT-15 colon) was over 100 µM and the TGI (MALME-3M melanoma) was over 100 µM. For the same compound, the TGI (UACC-62 melanoma) was over 100 µM and the TGI (OVCAR-4 ovarian) was over 100 µM.

Compound `COc1ccc(-c2ccc(-c3ccc(C(=N)N)cn3)s2)cc1Cl` has a GI50 (ACHN renal) of 1.64 µM, a TGI (ACHN renal) of 3 µM and a GI50 (PC-3 prostate) of 1.77 µM. For the same compound, the TGI (PC-3 prostate) was 3.51 µM, the GI50 (OVCAR-5 ovarian) was 1.55 µM and the TGI (OVCAR-5 ovarian) was 3.02 µM. It also gave a GI50 (HCT-15 colon) of 1.62 µM, a TGI (HCT-15 colon) of 3.01 µM and a GI50 (MALME-3M melanoma) of 1.3 µM. For the same compound, the TGI (MALME-3M melanoma) was 2.9 µM, the GI50 (UACC-62 melanoma) was 1.88 µM and the TGI (UACC-62 melanoma) was 3.65 µM. The GI50 (OVCAR-4 ovarian) was 1.61 µM and the TGI (OVCAR-4 ovarian) was 3.3 µM.

Work on `CCCCCCCCCC(=O)CC(=O)c1c(O)cccc1O` yielded a TGI (ACHN renal) of 83.4 µM, a TGI (K-562 leukemia) of 86 µM and a TGI (MOLT-4 leukemia) of over 100 µM. The TGI (OVCAR-5 ovarian) was 64 µM, the TGI (NCI-H226 lung) was 70.2 µM and the TGI (MALME-3M melanoma) was 74.4 µM. It also gave a TGI (UACC-62 melanoma) of over 100 µM and a TGI (OVCAR-4 ovarian) of over 100 µM.

With `O=c1c([Se]c2coc3ccccc3c2=O)coc2ccccc12` the TGI (ACHN renal) was 32.1 µM, the TGI (K-562 leukemia) was over 100 µM and the TGI (MOLT-4 leukemia) was 48.2 µM. For the same compound, the TGI (OVCAR-5 ovarian) was 30.3 µM, the TGI (HCT-15 colon) was 30.8 µM and the TGI (NCI-H226 lung) was 28.2 µM. For the same compound, the TGI (MALME-3M melanoma) was 31.8 µM, the TGI (UACC-62 melanoma) was 30.9 µM and the TGI (OVCAR-4 ovarian) was 32.6 µM.

In the case of `O=C1C2=C(c3ccccc31)C(c1ccccc1Cl)N1C(=O)CSC1=N2` (stereo not drawn), the TGI (ACHN renal) is reported as over 100 µM, the TGI (K-562 leukemia) is reported as over 100 µM and the TGI (MOLT-4 leukemia) is reported as over 100 µM. The TGI (OVCAR-5 ovarian) was over 100 µM, the TGI (HCT-15 colon) was over 100 µM and the TGI (NCI-H226 lung) was over 100 µM. The TGI (MALME-3M melanoma) was over 100 µM, the TGI (UACC-62 melanoma) was over 100 µM and the TGI (OVCAR-4 ovarian) was over 100 µM.

In the case of `CC(C)(C)CC(C)(C)c1ccc(OCCOCCSC(=N)N)cc1`, the GI50 (ACHN renal) is reported as 1.72 µM, the TGI (ACHN renal) is reported as 3.22 µM and the GI50 (K-562 leukemia) is reported as 1.51 µM. For the same compound, the TGI (K-562 leukemia) was 3.58 µM, the GI50 (MOLT-4 leukemia) was 2.35 µM and the TGI (MOLT-4 leukemia) was 6.17 µM. For the same compound, the GI50 (PC-3 prostate) was 2.37 µM, the TGI (PC-3 prostate) was 7.25 µM and the GI50 (OVCAR-5 ovarian) was 2.4 µM. For the same compound, the TGI (OVCAR-5 ovarian) was 6.5 µM, the GI50 (HCT-15 colon) was 1.8 µM and the TGI (HCT-15 colon) was 3.85 µM. It also gave a GI50 (UACC-62 melanoma) of 1.75 µM, a TGI (UACC-62 melanoma) of 3.24 µM and a GI50 (OVCAR-4 ovarian) of 1.54 µM. It also gave a TGI (OVCAR-4 ovarian) of 3.1 µM.
